The record followed here is the supplement of paper PMC10307832.

Holding throughout (assay): relative viability (nuclei count vs DMSO), 5 days (fraction); higher = more cells survive
Compound in assay [1]: C1=CC(=CC=C1C2=CC(=C(S2)NC(=O)N)C(=O)N)F [TPCA-1] + CC(=O)c1c(C)c2cnc(Nc3ccc(N4CCNCC4)cn3)nc2n(C2CCCC2)c1=O [Palbociclib] (partner 0.5 µM)
In short, it runs like this:
(§1)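 Lung cancer cell lines were seeded in 1536-well plates and dosed by pin tool the next day, with either a single drug or a fixed anchor-drug dose combined with five library-drug doses (not always all listed) spaced in √10 steps. Five days later, one step fixed the cells and stained their nuclei (final 0.05% Triton X-100, 1% formaldehyde, 1 ug/ml Hoechst), and nuclei were counted on 4× images. Relative viability is the nuclei count in treated wells divided by the count in vehicle wells, and each value is the median of duplicate plates.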

Compound in assay [2]: C1=CC(=CC=C1C2=CC(=C(S2)NC(=O)N)C(=O)N)F [TPCA-1] + CCNC(=O)c1noc(-c2cc(C(C)C)c(O)cc2O)c1-c1ccc(CN2CCOCC2)cc1 [Luminespib] (partner 0.01 µM)
Summed up:
as §1

Compound in assay [3]: C[C@]12O[C@H](C[C@]1(O)CO)n1c3ccccc3c3c4c(c5c6ccccc6n2c5c31)CNC4=O [Lestaurtinib] + Nc1nc2[nH]cc(CCc3ccc(C(=O)N[C@@H](CCC(=O)O)C(=O)O)cc3)c2c(=O)[nH]1 [Pemetrexed] (partner 0.2 µM)
Summed up: as §1

Compound in assay [4]: C1=CC(=CC=C1C2=CC(=C(S2)NC(=O)N)C(=O)N)F [TPCA-1] + Nc1nc2[nH]cc(CCc3ccc(C(=O)N[C@@H](CCC(=O)O)C(=O)O)cc3)c2c(=O)[nH]1 [Pemetrexed] (partner 0.2 µM)
Summed up:
as §1

Consider UMC-11, for which the relative viability in assay [1] (first compound 0.04 µM) is 0.354; in assay [1] (first compound 0.1265 µM) it was 0.316; in assay [1] (first compound 0.4 µM) it was 0.299; in assay [1] (first compound 1.265 µM), 0.408; in assay [1] (first compound 4 µM) it was 0.289; in assay [2] (first compound 0.04 µM), 1.18. Further, the relative viability in assay [2] (first compound 0.1265 µM) was determined as 0.914; in assay [2] (first compound 0.4 µM), 1.09; in assay [2] (first compound 1.265 µM) it was 0.957; in assay [2] (first compound 4 µM), 0.684; in assay [3] (first compound 0.005 µM) it was 0.923; in assay [3] (first compound 0.01581 µM), 0.859. In addition, the relative viability in assay [3] (first compound 0.05 µM) worked out at 0.436; in assay [3] (first compound 0.1581 µM), 0.256; in assay [3] (first compound 0.5 µM), 0.176; in assay [4] (first compound 0.04 µM), 0.809; in assay [4] (first compound 0.1265 µM), 0.763; in assay [4] (first compound 0.4 µM) it was 0.843. The relative viability in assay [4] (first compound 1.265 µM) is 0.776; in assay [4] (first compound 4 µM), 0.799.
